Reference: US6242468A, “Carbamate and urea compositions and neurotrophic uses” (priority 1998, dated 2001)

Each compound was assayed on TH-positive dopaminergic neurons in the striatum (assay: MPTP Model of Parkinson's Disease; recovery of TH-positive dopaminergic neurons in the striatum). Settings: 4 mg/kg s.c.; MPTP 30 mg/kg i.p. for 5 days; compound along with MPTP and 5 further days; 18 days following MPTP.
Format: in vivo, male CD1 white mice
Method: MPTP lesioning of dopaminergic neurons in mice was used as an animal model of Parkinson's Disease. Four week old male CD1 white mice were dosed i.p. with 30 mg/kg of MPTP for 5 days. Test compounds (4 mg/kg), or vehicle, were administered s.c. along with the MPTP for 5 days, as well as for an additional 5 days following cessation of MPTP treatment. At 18 days following MPTP treatment, the animals were sacrificed and the striata were dissected and perfusion-fixed. Immunostaining was performed on saggital and coronal brain sections using anti-tyrosine hydroxylase […] to quantitate survival and recovery of dopaminergic neurons. In animals treated with MPTP and vehicle, a substantial loss of functional dopaminergic terminals was observed as compared to non-lesioned animals. […] Table III presents quantitation for the recovery of TH-positive dopaminergic neurons in the striatum of animals receiving compounds 1, 3, 4 and 5 in this model.

Structure (SMILES) | % Recovery of TH Immunostaining [%]
CCC(C)CNC(=O)N1CCC[C@H]1C(=O)OCCCc1cccnc1 (stereo partly drawn) [Example 1, 3-(3-pyridyl)-1-propyl (2S)-1-[(2-methylbutyl)carbamoyl]pyrrolidine-2-carboxylate] | 27.47
O=C(OCCCc1cccnc1)[C@@H]1CCCN1C(=S)NC1CCCCC1 [Example 3, 3-(3-pyridyl)-1-propyl (2S)-1-[(cyclohexyl)thiocarbamoyl]-pyrrolidine-2-carboxylate] | 56.13
O=C(OCCCc1cccnc1)[C@@H]1CCCN1C(=O)NC1CCCCC1 [Example 4, 3-(3-pyridyl)-1-propyl (2S)-1-[(cyclohexyl)carbamoyl]-pyrrolidine-2-carboxylate] | 59.79
O=C(OCCCc1cccnc1)[C@@H]1CCCN1C(=S)NC12CC3CC(CC(C3)C1)C2 [Example 5, 3-(3-pyridyl)-1-propyl (2S)-1-[(1-adamantyl)thiocarbamoyl]pyrrolidine-2-carboxylate] | 52.32
